Article PMC12040169 (PLOS Biology, 2025)

assay: in vitro; details: human, hela cells, % viability

| SMILES | viability at 28.5 h, 10 µM |
| --- | --- |
| CC(C)CN1C(=O)COC[C@@H]1[C@H](O)c1ccc(NC(=O)c2cccnc2)cc1 [CBK289692] | 105% |
| CCNC(=O)Nc1ccc([C@@H](O)[C@H]2COCC(=O)N2CC)cc1 [CBK289696] | 93.5% |
| O=C(Nc1ccc([C@@H](O)[C@H]2COCC(=O)N2Cc2ccccn2)cc1)c1cccs1 [CBK289700] | 109% |
| Cn1ccnc1CN1C(=O)CO[C@H]2CN(c3ncccn3)C[C@H]21 [CBK289704] | 98.3% |
| CCc1cn(CC(C(=O)OC)N(C)C)c(=O)[nH]c1=O (centres unmarked) [CBK289706] | 107% |
| c1ccc2c(c1)CCN2c1ncnc2[nH]cnc12 [CBK291104] | 100% |
| O=C(Cc1c[nH]c(=O)[nH]c1=O)N1CCCCC1c1nc2cc(F)ccc2[nH]1 (centres unmarked) [CBK291108] | 104% |
| COc1ccc(-c2nc(-c3ccncc3)ncc2C(=O)NC2CCCCC2)cc1 [CBK291111] | 95.4% |
| COc1ccc(-c2nc(-c3ccncc3)ncc2C(=O)NCc2ccncc2)cc1 [CBK291112] | 96.4% |
| COc1ccc(Nc2ncc(C(=O)NCCCN3CCCC3)c3ccccc23)cc1 [CBK291114] | 106% |
| Cc1ccc(NC(=O)Cn2c(=O)cc(O)c3ccccc32)cc1 [CBK291116] | 95.9% |
| c1ccc2c(c1)CCN2c1ncnc2c1nc1n2CCCCC1 [CBK291119] | 91.1% |
| COc1ccc(C(=O)O)cc1N1C(=O)CC(c2c(C)nn(-c3ccccc3)c2N)C1=O (centres unmarked) [CBK291120] | 112% |
| Cc1cc(NC(=O)CCC2CCCCC2)nc2c1c(=O)oc1ccccc12 [CBK291125] | 111% |
| O=c1[nH]c(N2CCC3(CC2)OCCO3)nc2c(-c3ccccc3Cl)csc12 [CBK291128] | 114% |
| Cc1cc(Cn2nnc(-c3ccc(Br)cc3)n2)cc(C)c1O [CBK291129] | 119% |
| Cc1cc(Cn2nnc(-c3cccnc3)n2)cc(C)c1O [CBK291130] | 113% |
| Cc1cc(NC(=O)c2ccc(S(=O)(=O)N3CCOCC3)cc2)nc2c1c(=O)oc1ccccc12 [CBK291134] | 106% |
| Cc1cc(NC(=O)c2ccc(S(=O)(=O)N(C)C)cc2)nc2c1c(=O)oc1ccccc12 [CBK291135] | 104% |
| CC(c1ccncc1)N1Cc2cccc(C(=O)O)c2C1=O (centres unmarked) [CBK291137] | 97.4% |
| COc1cc(Cn2c(-c3ccc(O)c(OC)c3)nc3ccccc32)ccc1O [CBK291138] | 100% |
| Cc1ccc2sc(NC(=O)c3ccc(Cl)s3)nc2c1C [CBK291144] | 103% |
| O=C(O)c1cccc2c1C(=O)N(Cc1ccncc1)C2 [CBK291146] | 80.6% |

| SMILES | viability at 28.5 h, 10 µM |
| --- | --- |
| COc1ccc(CCC(=O)N2CCCCC2c2ncc(-c3cccc(F)c3)[nH]2)cc1OC (centres unmarked) [CBK291148] | 90.3% |
| Cc1nn(C)c(C)c1CCC(=O)N1CCCCC1c1ncc(-c2cccc(F)c2)[nH]1 (centres unmarked) [CBK291150] | 89.9% |
| Cc1cc(NC(=O)CC2CCCCC2)nc2c1c(=O)oc1ccccc12 [CBK291151] | 90.6% |
| Cc1ccc(CC(=O)N2CCCCC2c2ncc(-c3cccc(F)c3)[nH]2)cn1 (centres unmarked) [CBK291152] | 98% |
| O=C1CC(c2ccccc2)CC(=O)N1c1nnn[nH]1 [CBK291154] | 85.5% |
| O=C1CC(=O)N(Cc2ccc(F)cc2)C(=O)N1 [CBK291156] | 95.2% |
| Cc1cc(O)cc(=O)n1Cc1ccccn1 [CBK291159] | 91.8% |
| O=c1c(Cc2ccc(Cl)cc2)c(O)ccn1Cc1ccncc1 [CBK291161] | 98.7% |
| O=c1cc(O)c2ccccc2n1Cc1ccccc1F [CBK291162] | 86.3% |
| O=c1cc(O)c2cc([N+](=O)[O-])ccc2n1CCc1ccccc1 [CBK291165] | 90.8% |
| Cc1cc2ncc3c(n2n1)NC(c1ccc(Cl)cc1Cl)NC3=O (centres unmarked) [CBK291167] | 90.8% |
| O=C(O)c1ccc(N2C(=O)CC(c3ccccc3)CC2=O)cc1 [CBK291169] | 87.3% |
| CC(C)CSc1nc(O)cc(=O)n1Cc1ccccc1 [CBK291170] | 114% |
| COc1ccc(NC(=O)CSc2nc(C)c(Cc3ccc(O)cc3)[nH]2)cc1 [CBK291171] | 95.4% |
| O=C(NCc1ccccc1)c1c(O)c2ccccc2n(Cc2ccccc2)c1=O [CBK291174] | 91.6% |
| CCCn1c(=O)c(Cc2ccccc2)c(O)c2ccccc21 [CBK291175] | 89.3% |
| COc1ccc(Cc2nc(-c3ccccc3)c3ccccc3n2)cc1F [CBK291176] | 80.2% |
| COc1ccc(Oc2cc3n(c(=O)n2)CCc2cc(OC)c(OC)cc2-3)cc1 [CBK291177] | 86.1% |
| CCc1c(C(=O)Nc2ccc3nc(C)cn3c2)cnc2cc(O)nn12 [CBK291178] | 92.7% |
| CC(C)Oc1ccc(C2CC(=O)N(c3cccc(C(=O)O)c3)C2=O)cc1 (centres unmarked) [CBK291181] | 89.8% |
| CCOC(CCNC(=O)c1cnc(Nc2ccccc2OC)c2ccccc12)OCC [CBK291184] | 68.3% |
| Oc1ccc(Cn2c(-c3ccc(O)cc3)nc3ccccc32)cc1 [CBK291187] | 90.3% |
| CCCCCn1c(=O)c(C(=O)Nc2cccc(O)c2)c(O)c2ccccc21 [CBK291189] | 111% |

| SMILES | viability at 28.5 h, 10 µM |
| --- | --- |
| O=C1CC(c2ccccc2)CC(=O)N1c1ccc(N2CCOCC2)cc1 [CBK291191] | 108% |
| NS(=O)(=O)c1ccc2nc(NC(=O)c3ccc(N4C(=O)CCC4=O)cc3)sc2c1 [CBK291192] | 117% |
| O=C(O)c1cccc2c1C(=O)N(Cc1cccnc1)C2 [CBK291193] | 119% |
| Nc1nc(=O)c2cnc3ccc(F)cc3c2s1 [CBK291195] | 111% |
| CCCc1nc(SC)ncc1C(=O)Nc1nnc(SCC)s1 [CBK291198] | 108% |
| Cc1cc(NC(=O)c2ccc(C(C)(C)C)cc2)nc2c1c(=O)oc1ccccc12 [CBK291200] | 120% |
| Cc1cc(NC(=O)CCCc2ccccc2)nc2c1c(=O)oc1ccccc12 [CBK291204] | 109% |
| O=C(Nc1ccc(Br)cc1)c1c(O)n2c3c(cccc3c1=O)CCC2 [CBK291207] | 103% |
| Cn1c(=O)[nH]c(=O)c2cnc(-c3ccc(Cl)cc3)nc21 [CBK291208] | 95.6% |
| CCOCCCNC(=O)c1ccc(-c2cc(Oc3ccc(OC)cc3)ncn2)cc1 [CBK291209] | 100% |
| COc1ccc(C(=O)Nc2nc3c(C)c(C)ccc3s2)cc1 [CBK291210] | 107% |
| COc1ccc(Sc2nc(SC)nc(-c3ccccc3)c2C#N)cc1 [CBK291212] | 94% |
| O=C(Nc1ccccn1)c1c(O)n(Cc2ccccc2)c2ccccc2c1=O [CBK291213] | 90.3% |
| COC(=O)c1cccc2c1ncc1c(=O)nc(N)sc12 [CBK291214] | 101% |
| O=C(c1cc(-c2ccccc2)n[nH]c1=O)N1CCc2ccccc2C1 [CBK291216] | 91.2% |
| CCOC(=O)c1ccc2ncc3c(=O)nc(N)sc3c2c1 [CBK291218] | 83.7% |
| Cn1c(=O)c2cnc(-c3ccccc3Cl)nc2n(C)c1=O [CBK291219] | 85.7% |
| O=c1[nH]c(-c2cc(Cc3ccccc3Cl)ccc2O)nc2ccccc12 [CBK291220] | 98.3% |
| O=C(Nc1ccncc1)c1c(O)n(Cc2ccccc2)c2ccccc2c1=O [CBK291222] | 92% |
| CSc1ncc(C(=O)NC2CCCC2)c(NC2CCCC2)n1 [CBK291223] | 91.3% |
| COc1ccc(Oc2ncnc3c2oc2ccccc23)cc1 [CBK291224] | 86.4% |
| Cc1ccc2c(c1)nc(-c1ccc(O)cc1)n2Cc1ccc(O)cc1 [CBK291226] | 77.4% |
| Nc1nc(=O)c2cnc3c(Cl)cccc3c2s1 [CBK291229] | 89.5% |

| SMILES | viability at 28.5 h, 10 µM |
| --- | --- |
| Cc1cc(NC(=O)CN2CCN(c3ccc(F)cc3)CC2)nc2c1c(=O)oc1ccccc12 [CBK291232] | 88.8% |
| CCCCCn1c(=O)c(Cc2ccccc2)c(O)c2ccccc21 [CBK291233] | 93.2% |
| COc1ccc(Nc2ncnc3c2oc2ccccc23)cc1 [CBK291236] | 86.5% |
| Nc1nc(=O)c2cnc3ccc(C(=O)O)cc3c2s1 [CBK291239] | 96.7% |
| COc1cccc2c1ncc1c(=O)nc(N)sc12 [CBK291241] | 88.9% |
| O=C(Cn1c(=O)cc(O)c2ccccc21)Nc1cccc(F)c1 [CBK291242] | 98.1% |
| Cn1c(=O)c2c(O)cc(=O)n(Cc3ccccc3)c2n(C)c1=O [CBK291245] | 81.5% |
| Cc1cc(NC(=O)c2cc(Cl)ccc2[N+](=O)[O-])nc2c1c(=O)oc1ccccc12 [CBK291248] | 85.9% |
| Nc1nc(=O)c2cnc3c(F)cccc3c2s1 [CBK291249] | 91.1% |
| CCSc1nnc(NC(=O)c2cnc(SC)nc2CC)s1 [CBK291250] | 101% |
| Nc1nc2c(s1)c(O)nc(=O)n2Cc1ccccc1 [CBK291257] | 88.6% |
| Cc1cc(NC(=O)c2cc([N+](=O)[O-])ccc2Cl)nc2c1c(=O)oc1ccccc12 [CBK291258] | 90.8% |
| CCn1c(=O)[nH]c(=O)c2cnc(-c3ccc(OC)cc3)nc21 [CBK291259] | 107% |
| O=c1[nH]c(=O)n(Cc2cccnc2)c2nc[nH]c12 [CBK291260] | 111% |
| Cc1cc(NC(=O)c2ccc(Br)cc2)nc2c1c(=O)oc1ccccc12 [CBK291262] | 102% |
| O=C1COc2ccccc2C/C=C/CC2(CCN(C(=O)c3cncc(O)c3)CC2)C(=O)NCCN1 [CBK291989] | 98.3% |
| CC(=O)NCC(=O)N1CCCC2(C/C=C/COc3ccccc3C(=O)NCCNC2=O)C1 (centres unmarked) [CBK291991] | 87.1% |
| O=C1COc2ccccc2CCCCC2(CCCN(C(=O)CN3CCCC3=O)C2)CN1 (centres unmarked) [CBK291992] | 105% |
| O=C1COc2ccccc2CCCCC2(CCCN(C(=O)CCN3CCCC3=O)C2)CN1 (centres unmarked) [CBK291998] | 103% |
| CCC(=O)N1CC[C@H]2NC(=O)c3ccccc3OCC/C=C/C[C@H]2C1 [CBK291999] | 91.3% |
